Patent US10517862B2, “Fused heterocyclic compound derivative and application thereof” (NHWA PHARMA. CORPORATION, priority 2015, dated 2019)

Key:
mice of Kunming breed = assay: MK-801 induced high activity in mice; type: in vivo; details: Mus musculus, 1.5 h, po, MK-801 0.1 mg/kg ip, spontaneous activities in 90 min
Description: Example 54: MK-801 Induced High Activity—the In Vivo Anti-Schizophrenia Activity of the Compounds
Healthy mice of Kunming breed (with half male and half female, (20±2) g) were provided by Qinglongshan Animal Cultivation Center, Nanjing.
Ascorbic acid was provided by Sinopharm Chemical Reagent Co. Ltd.
MK-801 was produced by Sigma Company, USA; the formulation method: 0.1% vitamin C was used to formulate a 1 mg/ml solution.
Test positive drugs: haloperidol, clozapine, risperidone, olanzapine, aripiprazole, ziprasidone, quetiapine.
Tween 80, with the concentration of 10%.
Mice with qualified body weight were selected, and randomly divided into blank group, model group, positive control group (risperidone group) and drug group. […] 1 h after the administration, 0.1% concentration of ascorbic acid was intraperitoneally injected to the blank group at 0.1 ml/10 g; and the model group, the positive control group (30 min) and the drug group were intraperitoneally injected the MK-801 solution at 0.1 mg/kg. Subsequently, the spontaneous activities of the mice of each group in 90 min were measured.

[1] = test system: α1 norepinephrine receptor; assay: α1 norepinephrine receptor binding assay (3H-prazosin, rat cortex membrane); details: for affinity with α1 (in words): summary of in vitro assay; for α1 Inhibition rate (%): test compound final concentration 10^−5 M, 3H-prazosin, rat cortex membrane
Text: Preparation of Receptor Membrane of Norepinephrine
α1 Norepinephrine Receptor Binding Assay

5HT2C receptor = biological target: T1, 5HT2C receptor (Rattus norvegicus, UniProt P08909); assay: 5HT2C receptor binding assay ([3H]-mesulergine, rat striatum membrane); details: for affinity with 5HT2C (in words): summary of in vitro assay; for inhibition at 10 µM: test compound final concentration 10^−5 M, [3H]-mesulergine, rat striatum membrane, read-out: 5HT2C Inhibition rate (%)
T1 construct: from tissue; host or cells: rat brain striatum
T1 sequence (P08909 33-460): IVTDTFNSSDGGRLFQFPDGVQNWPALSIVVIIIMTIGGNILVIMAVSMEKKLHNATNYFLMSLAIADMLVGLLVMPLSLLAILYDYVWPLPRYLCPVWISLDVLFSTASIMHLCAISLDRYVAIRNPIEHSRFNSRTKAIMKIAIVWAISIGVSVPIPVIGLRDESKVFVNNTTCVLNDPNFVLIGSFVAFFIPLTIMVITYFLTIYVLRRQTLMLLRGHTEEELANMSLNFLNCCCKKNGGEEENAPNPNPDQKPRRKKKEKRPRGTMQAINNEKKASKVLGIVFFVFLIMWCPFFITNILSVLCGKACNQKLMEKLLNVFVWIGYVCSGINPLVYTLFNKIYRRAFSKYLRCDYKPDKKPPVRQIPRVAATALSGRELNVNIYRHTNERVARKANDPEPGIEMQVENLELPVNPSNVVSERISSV
Description: Preparation of 5HT2C Membrane
Rats were decapitated on ice. […] Centrifugation was conducted.
(§1) Materials for the Receptor Binding Assay

Catalepsy assay in mice = details: both sexes, Kunming, mouse, in vivo, po, bar test at 30, 60, 90 min
Description: Healthy mice of Kunming breed (with half male and half female, (22±2) g) were provided by Qinglongshan Animal Cultivation Center, Nanjing.
Instruments: self-made bar-grabbing apparatus: stainless steel bar in mice box, which was 0.3 cm in diameter and […].
Corresponding solvent double-distilled water was administered intragastrically to the negative control group and the model group, corresponding positive drugs were administered intragastrically to the positive drug groups (a small amount of acetic acid was first added and then double-distilled water was added when dissolving), and corresponding dosages of compounds were administered intragastrically to the compound groups for each dosage, with the volume for intragastric administration as 0.1 ml/10 g. At 30 min, 60 min, 90 min after the intragastric administration, the two forepaws of the mice were gently placed on the bars (which were 20 cm in length, 0.3 cm in diameter, and 5.5 cm above the bench), and the hindpaws of the animals were placed on the bottom of the box. The durations of the mice to maintain the posture with the two forepaws on the bars were recorded, and 30 s of spasticity without moving was considered as the positive response. In the case the forepaws of the mice were not put down persistently, the observation was terminated at 60 s. The numbers of animals with positive response in each of the compound dosage groups were counted.

Histamine H1 receptor = Histamine H1 receptor (Rattus norvegicus, UniProt P31390); assay: Histamine H1 receptor binding assay (3H-pyrilamine, rat cerebellum membrane); details: for inhibition at 10 µM: read-out: H1 Inhibition rate (%); for affinity with H1 (in words): summary of in vitro assay
Histamine H1 receptor, sequence (P31390 whole entry): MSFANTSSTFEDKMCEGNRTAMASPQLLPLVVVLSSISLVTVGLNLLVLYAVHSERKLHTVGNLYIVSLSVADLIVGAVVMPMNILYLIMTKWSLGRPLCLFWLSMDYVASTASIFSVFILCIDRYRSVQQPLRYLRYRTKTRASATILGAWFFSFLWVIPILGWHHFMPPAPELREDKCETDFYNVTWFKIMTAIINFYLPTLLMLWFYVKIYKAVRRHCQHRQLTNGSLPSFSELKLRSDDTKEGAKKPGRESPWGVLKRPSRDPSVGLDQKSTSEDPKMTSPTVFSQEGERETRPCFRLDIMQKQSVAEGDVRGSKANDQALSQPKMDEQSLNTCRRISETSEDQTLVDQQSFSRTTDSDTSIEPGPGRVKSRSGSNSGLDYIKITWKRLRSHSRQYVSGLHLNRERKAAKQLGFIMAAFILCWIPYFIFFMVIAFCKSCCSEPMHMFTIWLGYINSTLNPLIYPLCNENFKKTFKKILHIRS
Description: The supernatant was discarded to give pellets, and homogenate F was added again to the pellets for washing. Centrifugation was conducted and repeated 3 times.
(2) 100 μL of membrane preparation was added into each reaction tube.

D2 receptor = D2 receptor binding assay (3H-Spiperone, rat striatum membrane); details: for affinity with D2 (in words): summary of in vitro assay; for D2 Inhibition rate (%): test compound final concentration 10^−5 M, 3H-Spiperone, rat striatum membrane
Description: Preparation of D2 Membrane
Rats were decapitated on ice. […] The weight of the homogenized tubes were adjusted using a balance, and centrifugation was conducted. […] Centrifugation was conducted.
as §1

5HT1A receptor = biological target: T2, 5HT1A receptor (Rattus norvegicus, UniProt P19327); assay: 5HT1A receptor binding assay (3H-8-OH-DPAT, rat striatum membrane); details: for affinity with 5HT1A (in words): summary of in vitro assay; for inhibition at 10 µM: test compound final concentration 10^−5 M, 3H-8-OH-DPAT, rat striatum membrane, read-out: 5HT1A Inhibition rate (%)
T2 construct: Rats were decapitated on ice; from tissue; host or cells: rat brain striatum
T2 sequence (P19327 1-422): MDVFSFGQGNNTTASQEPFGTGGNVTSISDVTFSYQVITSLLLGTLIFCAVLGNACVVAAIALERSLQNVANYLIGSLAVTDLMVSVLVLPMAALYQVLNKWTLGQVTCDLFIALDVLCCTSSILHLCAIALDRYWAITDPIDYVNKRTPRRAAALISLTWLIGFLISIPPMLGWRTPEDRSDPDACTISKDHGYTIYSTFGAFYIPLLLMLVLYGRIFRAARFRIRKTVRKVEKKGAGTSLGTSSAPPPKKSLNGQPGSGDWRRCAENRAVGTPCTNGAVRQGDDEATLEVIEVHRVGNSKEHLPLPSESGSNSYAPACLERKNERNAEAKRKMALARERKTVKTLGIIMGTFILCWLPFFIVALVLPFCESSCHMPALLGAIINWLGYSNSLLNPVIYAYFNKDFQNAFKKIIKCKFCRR
Description: Preparation of 5HT1A Membrane
Rats were decapitated on ice. […] Incubation at 37° C. was conducted for 10 min. […] Centrifugation was conducted at 12000 rpm, 4° C. for 20 min. […] Centrifugation was conducted and repeated 3 times.
as §1

5HT2A receptor = 5HT2A receptor (Rattus norvegicus, UniProt P14842); assay: 5HT2A receptor binding assay ([3H]-Ketanserin, rat striatum membrane); details: for inhibition at 10 µM: read-out: 5HT2A Inhibition rate (%); for affinity with 5HT2A (in words): summary of in vitro assay
5HT2A receptor, sequence (P14842 whole entry): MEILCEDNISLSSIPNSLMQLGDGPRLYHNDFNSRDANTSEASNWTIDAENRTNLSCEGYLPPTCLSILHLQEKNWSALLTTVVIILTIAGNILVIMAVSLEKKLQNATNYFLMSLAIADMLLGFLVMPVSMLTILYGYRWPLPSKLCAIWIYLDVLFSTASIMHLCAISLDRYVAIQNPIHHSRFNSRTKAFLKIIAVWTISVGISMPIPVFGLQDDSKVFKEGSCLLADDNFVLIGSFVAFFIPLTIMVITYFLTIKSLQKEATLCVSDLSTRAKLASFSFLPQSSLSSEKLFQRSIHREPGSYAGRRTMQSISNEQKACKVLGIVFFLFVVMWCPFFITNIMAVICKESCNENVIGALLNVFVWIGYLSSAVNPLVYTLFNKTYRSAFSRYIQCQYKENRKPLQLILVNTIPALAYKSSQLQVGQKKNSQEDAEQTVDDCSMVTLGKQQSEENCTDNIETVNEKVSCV

| SMILES | ED50 (mice of Kunming breed) | affinity with α1 (in words) [1] | α1 Inhibition rate (%) [1] | affinity with 5HT2C (in words) (5HT2C receptor) | inhibition at 10 µM (5HT2C receptor) | ED50 (Catalepsy assay in mice) | inhibition at 10 µM (Histamine H1 receptor) | affinity with H1 (in words) (Histamine H1 receptor) | affinity with D2 (in words) (D2 receptor) | D2 Inhibition rate (%) (D2 receptor) | affinity with 5HT1A (in words) (5HT1A receptor) | inhibition at 10 µM (5HT1A receptor) | inhibition at 10 µM (5HT2A receptor) | affinity with 5HT2A (in words) (5HT2A receptor) |
| --- | --- | --- | --- | --- | --- | --- | --- | --- | --- | --- | --- | --- | --- | --- |
| O=C(CCCN1CCC(c2noc3cc(F)ccc23)CC1)c1cc2c3c(c1)CCC(=O)N3CCC2 [Compound 5] | 2.2 mg/kg | low affinities | 43.75% | low affinities | 66.8% | > 200 mg/kg | 44.5% | low affinities | high affinities | 99.40% | high affinities | 99.8% | 99.5% | high affinities |
| O=C(CCN1CCC(c2noc3cc(F)ccc23)CC1)c1cc2c3c(c1)CCN3C(=O)CC2 [Compound 12] | 0.06 mg/kg | low affinities | 58.91% | low affinities | 56.5% | 8.45 mg/kg | 41.4% | low affinities | high affinities | 97.75% | high affinities | 96.5% | 94.4% | high affinities |
